Holding throughout (format): cell-based
The target in one assay is T1, ZBTB7A (Homo sapiens, UniProt O95365+Q96SW2).
T1 construct: HUDEP-2 cells engineered to express a HiBiT tag in either the WIZ (Widely interspaced zinc finger) or ZBTB7A
Kind of assay: HUDEP-2 ZBTB7A HiBiT degradation assay. The note with it: HiBiT-tagged ZBTB7A degradation in HUDEP-2 cells, 24 hours of treatment; read-out: ZBTB7A EC50. The method, boiled down:
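HiBiT-tagged HUDEP-2 cells were pre-cultured 48 h in IMDM with EPO, SCF, doxycycline and 5% human plasma, then exposed to compounds at 1.0×10^6 cells/ml for 24 h at 37 °C. Nano-Glo HiBiT lytic luminescence, normalised to DMSO over 10 concentrations, gave EC50 and Y-min.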
In general terms: HiBiT is a short tag that completes a luciferase, so light tracks the accessible tagged protein.

Another assay relates to HbF. The assay is described as follows: HbF HiBiT induction assay in HUDEP-2 cells. The note with it: HUDEP-2 cells with HiBiT tag in HBG1/2, 72 hours of treatment; area under the dose response curve, higher AUC = greater HbF induction. The method, boiled down:
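HUDEP-2 cells carrying a HiBiT tag on HBG1/2 were exposed to compounds for 72 h at 37° C, 5% CO2, in IMDM with EPO, hSCF, DOX, transferrin, insulin, heparin and 5% human plasma. HiBiT luminescence was read after lytic detection; HbF induction is expressed as dose-response AUC, alongside EC50 and Ymax.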

In another assay the target is T2, WIZ (Homo sapiens, UniProt O95785+Q96SW2).
T2 construct: HUDEP-2 cells engineered to express a HiBiT tag in either the WIZ (Widely interspaced zinc finger) or ZBTB7A
T2 sequence (O95785 whole entry): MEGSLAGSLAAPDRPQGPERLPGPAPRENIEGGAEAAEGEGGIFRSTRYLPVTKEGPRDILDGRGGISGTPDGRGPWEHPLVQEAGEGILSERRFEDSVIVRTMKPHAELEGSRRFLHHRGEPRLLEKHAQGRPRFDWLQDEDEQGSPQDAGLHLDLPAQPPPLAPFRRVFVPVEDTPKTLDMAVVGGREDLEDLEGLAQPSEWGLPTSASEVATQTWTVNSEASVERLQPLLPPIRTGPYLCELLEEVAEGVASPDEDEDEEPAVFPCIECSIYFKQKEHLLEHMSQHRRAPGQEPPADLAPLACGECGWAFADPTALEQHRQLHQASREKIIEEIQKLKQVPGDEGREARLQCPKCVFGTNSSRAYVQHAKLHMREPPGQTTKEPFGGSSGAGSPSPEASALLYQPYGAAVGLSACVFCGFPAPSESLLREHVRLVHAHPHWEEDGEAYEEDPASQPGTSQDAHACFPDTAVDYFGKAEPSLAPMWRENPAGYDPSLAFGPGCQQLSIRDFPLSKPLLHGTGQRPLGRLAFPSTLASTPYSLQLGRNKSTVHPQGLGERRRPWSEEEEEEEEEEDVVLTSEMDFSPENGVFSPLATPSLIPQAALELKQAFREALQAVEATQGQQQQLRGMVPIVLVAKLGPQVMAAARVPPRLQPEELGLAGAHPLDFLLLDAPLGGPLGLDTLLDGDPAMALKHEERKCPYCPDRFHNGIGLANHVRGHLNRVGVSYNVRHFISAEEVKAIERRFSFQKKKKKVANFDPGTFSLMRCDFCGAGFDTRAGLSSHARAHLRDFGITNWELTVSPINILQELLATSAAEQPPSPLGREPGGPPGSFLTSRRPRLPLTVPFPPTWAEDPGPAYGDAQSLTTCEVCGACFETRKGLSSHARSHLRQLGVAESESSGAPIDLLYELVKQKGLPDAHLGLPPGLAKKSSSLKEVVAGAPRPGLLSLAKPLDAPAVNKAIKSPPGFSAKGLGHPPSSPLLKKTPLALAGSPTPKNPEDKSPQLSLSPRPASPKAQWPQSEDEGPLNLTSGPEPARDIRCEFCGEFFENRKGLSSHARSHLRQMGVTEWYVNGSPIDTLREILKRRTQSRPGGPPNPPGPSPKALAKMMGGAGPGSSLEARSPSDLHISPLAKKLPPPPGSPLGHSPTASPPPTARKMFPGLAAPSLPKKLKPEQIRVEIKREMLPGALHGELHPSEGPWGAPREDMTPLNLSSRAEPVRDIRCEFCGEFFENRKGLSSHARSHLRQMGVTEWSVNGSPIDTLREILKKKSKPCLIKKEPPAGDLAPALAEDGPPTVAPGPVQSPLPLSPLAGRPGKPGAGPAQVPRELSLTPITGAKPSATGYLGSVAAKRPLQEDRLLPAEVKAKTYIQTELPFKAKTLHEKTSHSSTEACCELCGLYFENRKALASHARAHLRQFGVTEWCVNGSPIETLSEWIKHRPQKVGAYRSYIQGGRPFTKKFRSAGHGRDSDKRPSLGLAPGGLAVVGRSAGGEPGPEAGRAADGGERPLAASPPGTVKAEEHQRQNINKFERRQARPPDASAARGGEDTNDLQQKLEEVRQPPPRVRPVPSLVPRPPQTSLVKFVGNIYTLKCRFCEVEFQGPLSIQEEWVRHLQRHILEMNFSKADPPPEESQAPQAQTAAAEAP
T2 sequence (Q96SW2 whole entry): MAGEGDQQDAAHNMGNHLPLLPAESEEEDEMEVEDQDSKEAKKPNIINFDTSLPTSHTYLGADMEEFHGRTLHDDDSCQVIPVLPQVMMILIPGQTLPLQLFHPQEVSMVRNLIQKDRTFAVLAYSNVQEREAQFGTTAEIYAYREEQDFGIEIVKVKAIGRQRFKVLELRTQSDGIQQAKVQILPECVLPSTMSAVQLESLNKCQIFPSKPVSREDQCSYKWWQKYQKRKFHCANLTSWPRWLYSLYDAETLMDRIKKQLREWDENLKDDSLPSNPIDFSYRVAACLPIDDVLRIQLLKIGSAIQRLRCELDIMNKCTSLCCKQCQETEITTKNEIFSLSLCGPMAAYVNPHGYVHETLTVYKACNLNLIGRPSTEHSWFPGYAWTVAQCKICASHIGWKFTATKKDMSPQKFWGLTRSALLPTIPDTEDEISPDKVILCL
T2 sequence (Q16531 whole entry partner): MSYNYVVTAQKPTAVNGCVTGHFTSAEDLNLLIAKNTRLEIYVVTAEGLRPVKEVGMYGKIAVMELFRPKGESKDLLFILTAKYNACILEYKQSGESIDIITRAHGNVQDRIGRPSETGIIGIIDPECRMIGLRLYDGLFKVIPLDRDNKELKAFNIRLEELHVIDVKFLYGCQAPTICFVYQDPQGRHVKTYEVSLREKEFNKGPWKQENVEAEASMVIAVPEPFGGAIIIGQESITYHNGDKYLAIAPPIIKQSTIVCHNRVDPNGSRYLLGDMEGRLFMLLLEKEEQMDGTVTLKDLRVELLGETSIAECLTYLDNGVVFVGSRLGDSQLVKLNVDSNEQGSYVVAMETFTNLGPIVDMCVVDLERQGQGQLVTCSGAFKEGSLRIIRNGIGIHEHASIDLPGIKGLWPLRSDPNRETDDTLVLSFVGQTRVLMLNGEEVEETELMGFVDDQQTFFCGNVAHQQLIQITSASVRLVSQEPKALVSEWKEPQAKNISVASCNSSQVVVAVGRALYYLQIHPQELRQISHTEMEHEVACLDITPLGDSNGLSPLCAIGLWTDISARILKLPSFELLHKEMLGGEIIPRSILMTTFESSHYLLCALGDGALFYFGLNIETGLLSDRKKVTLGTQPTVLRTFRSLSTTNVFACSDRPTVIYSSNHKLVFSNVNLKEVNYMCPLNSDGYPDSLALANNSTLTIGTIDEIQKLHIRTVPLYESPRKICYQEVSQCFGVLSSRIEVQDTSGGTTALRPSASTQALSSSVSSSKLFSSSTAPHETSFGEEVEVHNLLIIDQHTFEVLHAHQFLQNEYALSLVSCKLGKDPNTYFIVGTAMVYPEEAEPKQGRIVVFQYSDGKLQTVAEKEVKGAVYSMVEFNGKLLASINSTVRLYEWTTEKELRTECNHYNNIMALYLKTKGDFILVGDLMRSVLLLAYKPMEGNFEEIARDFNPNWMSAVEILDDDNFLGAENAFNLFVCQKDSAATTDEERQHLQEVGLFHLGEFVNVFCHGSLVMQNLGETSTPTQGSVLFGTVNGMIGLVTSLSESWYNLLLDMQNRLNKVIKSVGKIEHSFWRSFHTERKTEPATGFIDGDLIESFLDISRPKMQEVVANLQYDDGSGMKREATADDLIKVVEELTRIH
The assay is described as follows: HUDEP-2 WIZ HiBiT degradation assay. The note with it: HiBiT-tagged WIZ degradation in HUDEP-2 cells, 24 hours of treatment; read-out: WIZ EC50. The method, boiled down:
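HiBiT-tagged HUDEP-2 cells at 1.0×10^6 cells/ml in SFEM II with SCF, EPO, dexamethasone and doxycycline, treated 24 h at 37 °C with a 10-point series ([…]). Luminescence after HiBiT lytic detection, normalized to DMSO; EC50 and Y-min from fitted curves.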

The record followed here is patent publication US20250333407A1, “Compounds and Their Use for Treatment of Hemoglobinopathies” (Bristol-Myers Squibb Company, priority 2024, published 2025).

T1 sequence (O95365 whole entry): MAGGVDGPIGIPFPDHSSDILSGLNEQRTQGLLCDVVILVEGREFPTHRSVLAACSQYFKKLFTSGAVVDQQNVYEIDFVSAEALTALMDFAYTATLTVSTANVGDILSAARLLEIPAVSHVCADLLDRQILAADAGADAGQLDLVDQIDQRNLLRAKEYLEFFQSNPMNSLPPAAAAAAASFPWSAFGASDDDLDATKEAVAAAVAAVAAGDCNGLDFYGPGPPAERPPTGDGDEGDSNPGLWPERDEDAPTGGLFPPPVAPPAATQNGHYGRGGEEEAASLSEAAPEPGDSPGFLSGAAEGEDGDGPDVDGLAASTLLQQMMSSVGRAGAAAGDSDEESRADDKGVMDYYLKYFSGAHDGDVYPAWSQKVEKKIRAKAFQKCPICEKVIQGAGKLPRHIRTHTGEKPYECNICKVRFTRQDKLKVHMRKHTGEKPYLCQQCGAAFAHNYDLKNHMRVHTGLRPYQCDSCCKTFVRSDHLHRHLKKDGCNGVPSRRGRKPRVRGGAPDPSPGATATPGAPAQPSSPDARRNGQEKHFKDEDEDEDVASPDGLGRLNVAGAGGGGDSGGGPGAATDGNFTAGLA
T1 sequence (Q96SW2 whole entry): as the sequence (Q96SW2 whole entry) above
T1 sequence (Q16531 whole entry partner): as the sequence (Q16531 whole entry partner) above

With `CCOc1cc(-c2cc3c(cc2Nc2cccc4c2C(=O)N(C2CCC(=O)NC2=O)C4=O)N(C)C(=O)CO3)cc(C)n1` (stereo not drawn) [Compound 16, 2-(2,6-dioxopiperidin-3-yl)-4-((7-(2-ethoxy-6-methylpyridin-4-yl)-4-methyl-3-oxo-3,4-dihydro-2H-benzo[b][1,4]oxazin-6-yl)amino)isoindoline-1,3-dione], the DC50 worked out at 73 nM at ZBTB7A and 32 nM at WIZ. Further, the “HBF AUC” value in the assay with HbF was “+ (+ = 15 ≤ AUC < 100)”.
On to `Cc1cc(-c2c(Nc3cccc4c3C(=O)N(C3CCC(=O)NC3=O)C4=O)cc3c(c2F)OCC(=O)N3C)ccn1` (stereo not drawn) [Compound 81, 2-(2,6-dioxopiperidin-3-yl)-4-((8-fluoro-4-methyl-7-(2-methylpyridin-4-yl)-3-oxo-3,4-dihydro-2H-benzo[b][1,4]oxazin-6-yl)amino)isoindoline-1,3-dione], for which the figures for the DC50 at ZBTB7A and at WIZ were 28 nM and 24 nM, respectively. The “HBF AUC” value in the assay on HbF is “++ (++ = 100 ≤ AUC < 150)”.
On the same counts, the results for `Cc1cc(-c2cc3c(cc2Nc2cccc4c2C(=O)N([C@H]2CCC(=O)NC2=O)C4=O)N(C)C(=O)CO3)cc(N)n1` [Compound 10, (S)-4-((7-(2-amino-6-methylpyridin-4-yl)-4-methyl-3-oxo-3,4-dihydro-2H-benzo[b][1,4]oxazin-6-yl)amino)-2-(2,6-dioxopiperidin-3-yl)isoindoline-1,3-dione] are 20 nM, 12 nM and “++ (++ = 100 ≤ AUC < 150)”.
On to `CN(C)c1cc(-c2cc3c(cc2Nc2cccc4c2C(=O)N(C2CCC(=O)NC2=O)C4=O)N(C)C(=O)CO3)ccn1` (stereo not drawn) [Compound 15, 4-((7-(2-(dimethylamino)pyridin-4-yl)-4-methyl-3-oxo-3,4-dihydro-2H-benzo[b][1,4]oxazin-6-yl)amino)-2-(2,6-dioxopiperidin-3-yl)isoindoline-1,3-dione], for which the DC50 was found to be 22 nM at ZBTB7A and 7 nM at WIZ. In the assay on HbF, the “HBF AUC” value is “+ (+ = 15 ≤ AUC < 100)”.
On the same counts, the results for `Cc1cncc(-c2cc3c(cc2Nc2cccc4c2C(=O)N([C@H]2CCC(=O)NC2=O)C4=O)N(C)C(=O)[C@H](C)O3)c1` [Compound 43, 4-(((S)-2,4-dimethyl-7-(5-methylpyridin-3-yl)-3-oxo-3,4-dihydro-2H-benzo[b][1,4]oxazin-6-yl)amino)-2-((S)-2,6-dioxopiperidin-3-yl)isoindoline-1,3-dione] are 24 nM, 15 nM and “++ (++ = 100 ≤ AUC < 150)”.
As to `COc1cc(-c2c(Nc3cccc4c3C(=O)N([C@H]3CCC(=O)NC3=O)C4=O)cc3c(c2F)OCC(=O)N3C)c(F)cn1` [Compound 76, 2-((S)-2,6-dioxopiperidin-3-yl)-4-((8-fluoro-7-(5-fluoro-2-methoxypyridin-4-yl)-4-methyl-3-oxo-3,4-dihydro-2H-benzo[b][1,4]oxazin-6-yl)amino)isoindoline-1,3-dione], the figures for the DC50 at ZBTB7A and on WIZ were 65 nM and 22 nM, respectively. Further, the “HBF AUC” value with HbF is on record as “+ (+ = 15 ≤ AUC < 100)”.
For the compound `Cc1cc(-c2nc3c(cc2Nc2cccc4c2C(=O)N([C@H]2CCC(=O)NC2=O)C4=O)N(C)C(=O)CC3)ccn1` [Compound 95, (S)-2-(2,6-dioxopiperidin-3-yl)-4-((5-methyl-2-(2-methylpyridin-4-yl)-6-oxo-5,6,7,8-tetrahydro-1,5-naphthyridin-3-yl)amino)isoindoline-1,3-dione], the DC50 at ZBTB7A is 256 nM; on WIZ, 89 nM. The “HBF AUC” value in the assay on HbF is on record as “+ (+ = 15 ≤ AUC < 100)”.
The like results for `CO[C@H]1CC[C@H](c2cc3c(cc2Nc2cccc4c2C(=O)N([C@H]2CCC(=O)NC2=O)C4=O)N(C)C(=O)CC3)CC1` [Compound 91, 2-((S)-2,6-dioxopiperidin-3-yl)-4-((6-((1r,4S)-4-methoxycyclohexyl)-1-methyl-2-oxo-1,2,3,4-tetrahydroquinolin-7-yl)amino)isoindoline-1,3-dione] were, in that order, 4 nM, 4 nM and “++ (++ = 100 ≤ AUC < 150)”.
Regarding `COc1cc(-c2cc3c(cc2Nc2cccc4c2C(=O)N([C@H]2CCC(=O)NC2=O)C4=O)N(C)C(=O)[C@@H](C)O3)c(F)cn1` [Compound 30, 2-((S)-2,6-dioxopiperidin-3-yl)-4-(((R)-7-(5-fluoro-2-methoxypyridin-4-yl)-2,4-dimethyl-3-oxo-3,4-dihydro-2H-benzo[b][1,4]oxazin-6-yl)amino)isoindoline-1,3-dione], the DC50 came out at 19 nM at ZBTB7A and 11 nM on WIZ. Moreover, the “HBF AUC” value with HbF is listed as “++ (++ = 100 ≤ AUC < 150)”.
The like results for `Cc1cc(-c2cc3c(cc2Nc2cccc4c2C(=O)N([C@H]2CCC(=O)NC2=O)C4=O)N(C)C(=O)OC3C)ccn1` (stereo partly drawn) [Compound 70, 4-((1,4-dimethyl-6-(2-methylpyridin-4-yl)-2-oxo-1,4-dihydro-2H-benzo[d][1,3]oxazin-7-yl)amino)-2-((S)-2,6-dioxopiperidin-3-yl)isoindoline-1,3-dione] were, in that order, 15 nM, 19 nM and “++ (++ = 100 ≤ AUC < 150)”.
The like results for `Cc1cc(-c2cc3c(cc2Nc2cccc4c2C(=O)N([C@H]2CCC(=O)NC2=O)C4=O)N(C)C(=O)[C@@H](C)O3)c(F)cn1` [Compound 27, 2-((S)-2,6-dioxopiperidin-3-yl)-4-(((R)-7-(5-fluoro-2-methylpyridin-4-yl)-2,4-dimethyl-3-oxo-3,4-dihydro-2H-benzo[b][1,4]oxazin-6-yl)amino)isoindoline-1,3-dione] were, in that order, 11 nM, 6 nM and “+ (+ = 15 ≤ AUC < 100)”.
The like results for `CN1C(=O)COc2cc(-c3ccnc(C(F)F)c3)c(Nc3cccc4c3C(=O)N([C@H]3CCC(=O)NC3=O)C4=O)cc21` [Compound 9, (S)-4-((7-(2-(difluoromethyl)pyridin-4-yl)-4-methyl-3-oxo-3,4-dihydro-2H-benzo[b][1,4]oxazin-6-yl)amino)-2-(2,6-dioxopiperidin-3-yl)isoindoline-1,3-dione] were, in that order, 32 nM, 24 nM and “+ (+ = 15 ≤ AUC < 100)”.
As to `Cc1cc(-c2cc3c(cc2Nc2cccc4c2C(=O)N([C@H]2CCC(=O)NC2=O)C4=O)N(C)C(=O)[C@@H](C)O3)ccn1` [Compound 6, 4-(((R)-2,4-dimethyl-7-(2-methylpyridin-4-yl)-3-oxo-3,4-dihydro-2H-benzo[b][1,4]oxazin-6-yl)amino)-2-((S)-2,6-dioxopiperidin-3-yl)isoindoline-1,3-dione], the DC50 at ZBTB7A came out at 49 nM; at WIZ, 9 nM. For the same compound, the “HBF AUC” value in the assay with HbF is “+ (+ = 15 ≤ AUC < 100)”.
On the same counts, the results for `CCOc1cc(-c2cc3c(cc2Nc2cccc4c2C(=O)N(C2CCC(=O)NC2=O)C4=O)N(C)C(=O)CO3)ccn1` (stereo not drawn) [Compound 52, 2-(2,6-dioxopiperidin-3-yl)-4-((7-(2-ethoxypyridin-4-yl)-4-methyl-3-oxo-3,4-dihydro-2H-benzo[b][1,4]oxazin-6-yl)amino)isoindoline-1,3-dione] are 143 nM, 12 nM and “+ (+ = 15 ≤ AUC < 100)”.
On the same counts, the results for `COc1nccc(-c2cc3c(cc2Nc2cccc4c2C(=O)N([C@H]2CCC(=O)NC2=O)C4=O)N(C)C(=O)[C@H](C)O3)c1F` [Compound 35, 2-((S)-2,6-dioxopiperidin-3-yl)-4-(((S)-7-(3-fluoro-2-methoxypyridin-4-yl)-2,4-dimethyl-3-oxo-3,4-dihydro-2H-benzo[b][1,4]oxazin-6-yl)amino)isoindoline-1,3-dione] are 8 nM, 11 nM and “+ (+ = 15 ≤ AUC < 100)”.
For the compound `Cc1cc(-c2cc3c(cc2Nc2cccc4c2C(=O)N([C@H]2CCC(=O)NC2=O)C4=O)N(C)C(=O)[C@H](C)O3)cc(C)n1` [Compound 23, 4-(((S)-7-(2,6-dimethylpyridin-4-yl)-2,4-dimethyl-3-oxo-3,4-dihydro-2H-benzo[b][1,4]oxazin-6-yl)amino)-2-((S)-2,6-dioxopiperidin-3-yl)isoindoline-1,3-dione], the figures for the DC50 on ZBTB7A and at WIZ were 15 nM and 11 nM, respectively. For the same compound, the “HBF AUC” value with HbF is on record as “++ (++ = 100 ≤ AUC < 150)”.
Consider `CCO[C@H]1CC[C@H](c2cc3c(cc2Nc2cccc4c2C(=O)N([C@H]2CCC(=O)NC2=O)C4=O)N(C)C(=O)[C@@H](C)O3)CC1` [Compound 45, 2-((S)-2,6-dioxopiperidin-3-yl)-4-(((R)-7-((1r,4R)-4-ethoxycyclohexyl)-2,4-dimethyl-3-oxo-3,4-dihydro-2H-benzo[b][1,4]oxazin-6-yl)amino)isoindoline-1,3-dione], for which the DC50 amounted to 10 nM on ZBTB7A and 6 nM on WIZ. For the same compound, in the assay with HbF, the “HBF AUC” value is listed as “++ (++ = 100 ≤ AUC < 150)”.
